Molecules are shown by their SMILES.

In this experiment the target is BACE-1 (β-secretase) (Homo sapiens, UniProt P56817). Briefly: cell-free chemoluminescent BACE-1 activity assay. The format is biochemical.
Sequence of BACE-1 (β-secretase) (P56817 46-457): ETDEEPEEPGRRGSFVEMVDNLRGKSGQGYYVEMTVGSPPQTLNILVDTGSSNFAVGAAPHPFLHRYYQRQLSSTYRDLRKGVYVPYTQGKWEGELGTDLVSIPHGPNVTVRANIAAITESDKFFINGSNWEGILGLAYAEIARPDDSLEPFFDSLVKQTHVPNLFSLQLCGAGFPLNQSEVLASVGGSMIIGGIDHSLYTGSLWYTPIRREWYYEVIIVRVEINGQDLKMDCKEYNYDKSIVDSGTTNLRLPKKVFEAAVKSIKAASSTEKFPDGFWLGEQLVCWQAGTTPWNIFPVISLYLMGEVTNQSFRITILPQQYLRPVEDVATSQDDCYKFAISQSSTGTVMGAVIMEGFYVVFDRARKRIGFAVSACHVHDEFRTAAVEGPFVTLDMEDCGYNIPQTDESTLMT

Usually IC50 stands for the concentration needed to halve the response being measured. Lower therefore signals higher potency. Molecule `O=c1cc(-c2ccc(O)cc2)oc2cc(O)cc(O)c12` [apigenin, 4',5,7-Trihydroxyflavone] had an IC50 of 34.2 µM. That is a double-digit micromolar value. `O=c1c(O)c(-c2ccc(O)cc2)oc2cc(O)cc(O)c12` [kaempferol, 3,5,7-Trihydroxy-2-(4-hydroxyphenyl)-4H-1-benzopyran-4-one] registered a 50% inhibitory concentration (IC50) of 27.7 µM.
